# What was measured:
# Assay type in all cases: in vivo
# Details in all cases: 250 g/ha, evaluated after 13 days
# AMAPA [1] = test: Pre-emergence biological efficacy, glasshouse
# Protocol: (§1) Seeds of weeds and/or crops were sown in standard soil in pots. After cultivation for one day under controlled conditions in a glasshouse (at 24/19° C., day/night; 16 hours light), the plants were sprayed with an aqueous spray solution derived from the formulation of the technical active ingredient in a small amount of acetone and a special solvent and emulsifier mixture referred to as IF50 (11.12% Emulsogen EL360 TM+44.44% N-methylpyrrolidone+44.44% Dowanol DPM glycol ether), to create a 50 g/I solution which was then diluted using 0.2% Genapol X080 as diluent to give the desired final dose of test compound.
# (§2) The test plants were then grown under controlled conditions in the glasshouse (at 24/18° C., day/night; […]; 50% humidity) and watered twice daily. After 13 days the test was evaluated (100=total damage to plant; 0=no damage to plant).
# ECHCG [2] = test: Pre-emergence biological efficacy, glasshouse
# Protocol: as §1, §2
# EPHHL [3] = test: Pre-emergence biological efficacy, glasshouse
# Protocol: as §1, §2
# IPOHE [4] = test: Pre-emergence biological efficacy, glasshouse
# Protocol: as §1, §2
# LOLPE [5] = test: Pre-emergence biological efficacy, glasshouse
# Protocol: as §1, §2
# SETFA [6] = test: Pre-emergence biological efficacy, glasshouse
# Protocol: as §1, §2
# AMAPA [7] = test: Post-emergence biological efficacy, glasshouse
# Protocol: as §1, with “14 days” for “one day”
# (§3) The test plants were then grown under controlled conditions in the glasshouse (at 24/18° C., day/night; 15 hours light; 50% humidity) and watered twice daily. After 13 days the test was evaluated (100=total damage to plant; 0=no damage to plant).
# CHEAL = test: Post-emergence biological efficacy, glasshouse
# Protocol: as §1, with “14 days” for “one day”
# as §3
# DIGSA = test: Post-emergence biological efficacy, glasshouse
# Protocol: as §1, with “14 days” for “one day”
# as §3
# ECHCG [8] = test: Post-emergence biological efficacy, glasshouse
# Protocol: as §1, with “14 days” for “one day”
# as §3
# ELEIN = test: Post-emergence biological efficacy, glasshouse
# Protocol: as §1, with “14 days” for “one day”
# as §3
# EPHHL [9] = test: Post-emergence biological efficacy, glasshouse
# Protocol: as §1, with “14 days” for “one day”
# as §3
# IPOHE [10] = test: Post-emergence biological efficacy, glasshouse
# Protocol: as §1, with “14 days” for “one day”
# as §3
# LOLPE [11] = test: Post-emergence biological efficacy, glasshouse
# Protocol: as §1, with “14 days” for “one day”
# as §3
# SETFA [12] = test: Post-emergence biological efficacy, glasshouse
# Protocol: as §1, with “14 days” for “one day”
# as §3
SMILES,"damage to plant (100=total damage to plant; 0=no damage to plant), AMAPA (AMAPA [1])","damage to plant (100=total damage to plant; 0=no damage to plant), ECHCG (ECHCG [2])","damage to plant (100=total damage to plant; 0=no damage to plant), EPHHL (EPHHL [3])","damage to plant (100=total damage to plant; 0=no damage to plant), IPOHE (IPOHE [4])","damage to plant (100=total damage to plant; 0=no damage to plant), LOLPE (LOLPE [5])","damage to plant (100=total damage to plant; 0=no damage to plant), SETFA (SETFA [6])","damage to plant (100=total damage to plant; 0=no damage to plant), AMAPA (AMAPA [7])","damage to plant (100=total damage to plant; 0=no damage to plant), CHEAL (CHEAL)","damage to plant (100=total damage to plant; 0=no damage to plant), DIGSA (DIGSA)","damage to plant (100=total damage to plant; 0=no damage to plant), ECHCG (ECHCG [8])","damage to plant (100=total damage to plant; 0=no damage to plant), ELEIN (ELEIN)","damage to plant (100=total damage to plant; 0=no damage to plant), EPHHL (EPHHL [9])","damage to plant (100=total damage to plant; 0=no damage to plant), IPOHE (IPOHE [10])","damage to plant (100=total damage to plant; 0=no damage to plant), LOLPE (LOLPE [11])","damage to plant (100=total damage to plant; 0=no damage to plant), SETFA (SETFA [12])"
"CCOC(=O)C1(C)CC(c2cc(-n3c(OC)nc(C(F)(F)F)cc3=O)c(F)cc2Cl)=NO1 (racemic) [Compound 11, Ethyl 3-[2-chloro-4-fluoro-5-[2-methoxy-6-oxo-4-(trifluoromethyl)pyrimidin-1-yl]phenyl]-5-methyl-4H-isoxazole-5-carboxylate]",100,100,100,80,80,100,100,100,100,100,100,100,100,100,100
"CCOC(=O)[C@@]1(C)CC(c2cc(-n3c(OC)nc(C(F)(F)F)cc3=O)c(F)cc2Cl)=NO1 [11 (R-enantiomer), Ethyl (5R)-3-[2-chloro-4-fluoro-5-[2-methoxy-6-oxo-4-(trifluoromethyl)pyrimidin-1-yl]phenyl]-5-methyl-4H-isoxazole-5-carboxylate]",10,90,50,70,10,90,100,100,100,100,100,90,100,100,80
"CCOC(=O)[C@]1(C)CC(c2cc(-n3c(OC)nc(C(F)(F)F)cc3=O)c(F)cc2Cl)=NO1 [11 (S-enantiomer), ethyl (5S)-3-[2-chloro-4-fluoro-5-[2-methoxy-6-oxo-4-(trifluoromethyl)pyrimidin-1-yl]phenyl]-5-methyl-4H-isoxazole-5-carboxylate]",100,100,90,80,40,100,100,100,100,100,100,100,100,100,100
